The subject of test [1] is SKOV-3 TRAG-3 transfectants. The experiment in a line: MTT assay of taxol sensitivity in TRAG-3 stable transfectants of SKOV-3. The class given is cell-based, Human. The conditions noted are these: SKOV-3 lipotransfected with pCI/TRAG-3, G418 selected; initial results. How it is done:
(§1) All drugs were obtained from commercial sources. In vitro cytotoxicity was measured using a tetrazolium-based semi-automated calorimetric assay (i.e., MTT assay), as described (Carmichael et al., 1987, Cancer Res. 47:936-942). Briefly, 2×10^3 cells per well were cultured for 6 days with taxol or with taxol plus 30 μM verapamil. 20 μl of 5 mg/ml MTT solution was added to each well and incubated for 4 hours. A590 nm was measured after MTT formazan was solubilized with HCl-isopropanol solution. The absorbance values were normalized by assigning the value of the parent line in media to 1.0 and the value of the no-cell blank to 0. Experiments were performed in duplicate.
pCI-neo Mammalian Expression Vector (Promega) was used to overexpress TRAG-3 cDNA in SKOV-3 cells. Constructs carrying TRAG-3 were introduced into SKOV-3 cells by using the PERFECT™ Transfection Kit (Invitrogen) according to the manufacturer's protocol. The individual G418 (300 μg/ml) resistant clones were isolated and examined by Northern analysis for stable expression of TRAG-3. MTT assays were performed on the transfectants to evaluate the effect of TRAG-3 on taxol sensitivity.
To elucidate the contribution of TRAG-3 gene product(s) to taxol resistance, taxol-sensitive SKOV-3 cells were lipotransfected with the pCI/TRAG-3 expression vector. After G418 selection, several TRAG-3 stable transfectant subclones were obtained. […]
On the technique in general: Formazan colour is commonly taken as a measure of viable cells.

Another test deals with SKOV-3TR cells. The experiment in a line: MTT cytotoxicity assay, taxol-resistant SKOV-3TR versus parental SKOV-3. Format: cell-based, Human. How it is done:
as §1
A taxol-resistant SKOV-3 subline, SKOV-3TR, was established by exposing SKOV-3 cells to taxol at stepwise increases in concentration (from 0.00001 μM to 0.3 μM taxol). […] The growth rate of […], was similar to that of parental SKOV-3. Cell lines were analyzed for their degree of taxol resistance by MTT cytotoxicity assays. […] This drug resistance profile is consistent with a MDR1 phenotype.

In the case of `CC(=O)O[C@H]1C(=O)[C@@]2(C)[C@H]([C@H](OC(=O)c3ccccc3)[C@]3(O)C[C@H](OC(=O)[C@H](O)[C@@H](NC(=O)c4ccccc4)c4ccccc4)C(C)=C1C3(C)C)[C@]1(OC(C)=O)CO[C@@H]1C[C@@H]2O` [taxol], in test [1], the “taxol resistance of TRAG-3 transfectants compared to the parent line” value is “no significant increase in taxol resistance”. For the same compound, in the test with SKOV-3TR cells (MTT cytotoxicity, SKOV-3TR vs parental SKOV-3, 6 days culture), the “degree of taxol resistance of SKOV-3TR relative to SKOV-3” value is given as “approximately 100 fold”. `CC[C@]1(O)C[C@H]2CN(CCc3c([nH]c4ccccc34)[C@@](C(=O)OC)(c3cc4c(cc3OC)N(C=O)[C@H]3[C@@](O)(C(=O)OC)[C@H](OC(C)=O)[C@]5(CC)C=CCN6CC[C@]43[C@@H]65)C2)C1` [vincristine]: the “resistance of SKOV-3TR to other drugs (cross-resistance)” value in the test on SKOV-3TR cells (SKOV-3TR selected with taxol up to 0.3 μM) is given as “cross-resistance”. As for `COc1ccc(CCN(C)CCCC(C#N)(c2ccc(OC)c(OC)c2)C(C)C)cc1OC` (stereo not shown) [verapamil], in the test with SKOV-3TR cells (taxol plus 30 μM verapamil, MTT assay, FIG. 1), the “effect of verapamil on SKOV-3TR's resistance to taxol” value is recorded as “reversed”.

Source of the values: patent US6362321B1, “Taxol resistance associated gene” (The General Hospital Corporation, priority 1998, dated 2002).
